Bounds are passed on as bounds.

The term AC50 denotes the concentration giving half of the maximal activity seen.

This test has as its target T1, POLγA:G848S (Homo sapiens, UniProt P54098, G848S).
T1 sequence (P54098 1-1239 G848S): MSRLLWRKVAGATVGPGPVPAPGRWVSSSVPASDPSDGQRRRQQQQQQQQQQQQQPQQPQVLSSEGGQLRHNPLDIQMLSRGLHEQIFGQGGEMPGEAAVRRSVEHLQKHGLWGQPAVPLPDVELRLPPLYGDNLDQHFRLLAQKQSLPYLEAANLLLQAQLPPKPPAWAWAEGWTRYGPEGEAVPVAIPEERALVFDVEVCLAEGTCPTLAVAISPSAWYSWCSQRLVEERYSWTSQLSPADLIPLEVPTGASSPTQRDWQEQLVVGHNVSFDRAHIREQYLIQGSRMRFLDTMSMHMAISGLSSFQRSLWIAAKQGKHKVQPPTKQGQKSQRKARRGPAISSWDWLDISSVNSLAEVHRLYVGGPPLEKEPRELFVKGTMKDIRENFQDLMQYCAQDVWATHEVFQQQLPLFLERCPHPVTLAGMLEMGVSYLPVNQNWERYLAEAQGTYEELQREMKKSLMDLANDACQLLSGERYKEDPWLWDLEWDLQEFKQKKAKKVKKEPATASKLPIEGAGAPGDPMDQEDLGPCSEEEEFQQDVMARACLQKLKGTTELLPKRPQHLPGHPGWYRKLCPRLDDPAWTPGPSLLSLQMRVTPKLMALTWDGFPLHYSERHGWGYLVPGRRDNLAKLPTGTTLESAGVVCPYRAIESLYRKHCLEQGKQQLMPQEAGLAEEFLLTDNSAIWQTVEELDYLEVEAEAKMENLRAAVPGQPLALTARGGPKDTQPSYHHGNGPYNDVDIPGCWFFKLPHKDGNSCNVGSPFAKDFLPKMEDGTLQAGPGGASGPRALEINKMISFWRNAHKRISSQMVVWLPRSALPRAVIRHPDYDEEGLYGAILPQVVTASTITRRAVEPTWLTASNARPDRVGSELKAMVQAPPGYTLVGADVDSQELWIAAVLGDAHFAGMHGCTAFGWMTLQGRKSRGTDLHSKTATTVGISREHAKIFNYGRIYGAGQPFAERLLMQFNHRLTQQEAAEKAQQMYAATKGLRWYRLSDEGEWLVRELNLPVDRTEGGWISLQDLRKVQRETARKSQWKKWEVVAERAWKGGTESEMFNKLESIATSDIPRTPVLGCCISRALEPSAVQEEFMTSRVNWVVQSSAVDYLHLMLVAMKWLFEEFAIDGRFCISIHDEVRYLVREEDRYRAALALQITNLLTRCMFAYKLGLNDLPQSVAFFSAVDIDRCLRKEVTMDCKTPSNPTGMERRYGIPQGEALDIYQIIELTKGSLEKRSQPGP
T1 sequence (Q9UHN1 1-485 partner): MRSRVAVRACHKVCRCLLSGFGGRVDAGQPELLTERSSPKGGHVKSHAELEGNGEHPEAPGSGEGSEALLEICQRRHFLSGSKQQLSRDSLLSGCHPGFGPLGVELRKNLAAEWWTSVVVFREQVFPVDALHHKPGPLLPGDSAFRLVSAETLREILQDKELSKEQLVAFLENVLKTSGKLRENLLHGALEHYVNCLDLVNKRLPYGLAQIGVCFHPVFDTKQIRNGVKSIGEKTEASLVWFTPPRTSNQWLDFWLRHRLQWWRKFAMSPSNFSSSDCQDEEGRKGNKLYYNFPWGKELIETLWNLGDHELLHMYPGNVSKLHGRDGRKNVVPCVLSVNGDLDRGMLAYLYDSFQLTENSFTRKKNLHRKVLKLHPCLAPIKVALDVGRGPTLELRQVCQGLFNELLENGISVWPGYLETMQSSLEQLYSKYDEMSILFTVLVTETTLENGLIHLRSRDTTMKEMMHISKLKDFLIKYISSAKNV
The test can be described thus: DNA polymerization assay, POLγA:G848S mutant. The format is biochemical. Particulars: stimulation of polymerase activity, primed M13mp18 ssDNA, 37° C. 2 hours; read-out: G848S AC50.
Regarding `COc1ccc(S(=O)(=O)Nc2cccc(C(=O)N3CCSCC3C#N)c2)cc1` (stereo not shown) [Example 34, N-(3-(3-cyanothiomorpholine-4-carbonyl)phenyl)-4-methoxybenzenesulfonamide], the AC50 came to 37 µM. Take `Cc1ccc(C)c(S(=O)(=O)Nc2cccc(C(=O)N(C)Cc3ccccc3)c2)c1` [Example 26, N-benzyl-3-((2,5-dimethylphenyl)sulfonamido)-N-methylbenzamide]: the half-maximal activity concentration (AC50) was determined as 50 µM. On to `Cc1ccc(C)c(S(=O)(=O)Nc2ccc(C(=O)N3CCCC[C@H]3C)s2)c1` [Example 43, (R)-2,5-dimethyl-N-(5-(2-methylpiperidine-1-carbonyl)thiopheN-2-yl)benzenesulfonamide], for which the AC50 stood at 51 µM. The result for `COc1ccccc1-c1nc(NS(=O)(=O)c2cc(C)c(Cl)cc2C)cs1` [Example 155, 4-chloro-N-(2-(2-methoxyphenyl)thiazol-4-yl)-2,5-dimethylbenzenesulfonamide] reads 4 µM; that for `Cc1cc(S(=O)(=O)Nc2cccc(C(N)=O)c2)c(C)cc1Cl` [Example 44, 3-((4-chloro-2,5-dimethylphenyl)sulfonamido)benzamide], 27 µM; that for `Cc1cc(S(=O)(=O)Nc2cc(-c3nccs3)ccc2F)c(C)cc1Cl` [Example 61, 4-chloro-N-(2-fluoro-5-(thiazol-2-yl)phenyl)-2,5-dimethylbenzenesulfonamide], above 100 µM. On to `Cc1cc(NS(=O)(=O)c2cc(C)ccc2C)cc(C(=O)N2CCCC[C@H]2C)c1` [Example 42, (R)-2,5-dimethyl-N-(3-methyl-5-(2-methylpiperidine-1-carbonyl)phenyl)benzenesulfonamide], for which the AC50 was above 100 µM. For `Cc1ccc(C)c(S(=O)(=O)Nc2cccc(C(=O)N3CCSCC3)c2)c1` [Example 24, 2,5-dimethyl-N-(3-(thiomorpholine-4-carbonyl)phenyl)benzenesulfonamide], the AC50 was above 100 µM. Take `CC(=O)N1CCN(C(=O)c2cccc(NS(=O)(=O)c3cc(C)ccc3C)c2)CC1` [Example 30, N-(3-(4-acetylpiperazine-1-carbonyl)phenyl)-2,5-dimethylbenzenesulfonamide]: the AC50 was found to be 22 µM. With `Cc1cc(S(=O)(=O)Nc2cccc(C(=O)N[C@H](C)c3ccccc3)c2)c(C)cc1Cl` [Example 48, (R)-3-((4-chloro-2,5-dimethylphenyl)sulfonamido)-N-(1-phenylethyl)benzamide], the AC50 came to 13 µM.

For `COCCNC(=O)c1cccc(NS(=O)(=O)c2cc(C)c(Cl)cc2C)c1` [Example 47, 3-((4-chloro-2,5-dimethylphenyl)sulfonamido)-N-(2-methoxyethyl)benzamide], the AC50 was found to be 39 µM. With `Cc1cc(S(=O)(=O)Nc2cn(C)c(-c3ccccc3)n2)c(C)cc1Cl` [Example 170, 4-chloro-2,5-dimethyl-N-(1-methyl-2-phenyl-1H-imidazol-4-yl)benzenesulfonamide], the AC50 is above 10 µM. Take `Cc1c(Cl)cccc1S(=O)(=O)Nc1csc(-c2ccccc2)n1` [Example 154, 3-chloro-2-methyl-N-(2-phenylthiazol-4-yl)benzenesulfonamide]: the AC50 was above 100 µM. The same measure for `Cc1nc2ccc(NS(=O)(=O)c3cc(C)c(Cl)cc3C)cc2o1` [Example 70, 4-chloro-2,5-dimethyl-N-(2-methylbenzo[d]oxazol-6-yl)benzenesulfonamide]: 49 µM; for `Cc1cc2c(NS(=O)(=O)c3cc(C)c(Cl)cc3C)cccc2[nH]1` [Example 37, 4-chloro-2,5-dimethyl-N-(2-methyl-1H-indol-4-yl)benzenesulfonamide]: above 100 µM. For the molecule `Cc1ccc(C)c(S(=O)(=O)Nc2cccc(C(=O)N3CCN(C)CC3)c2)c1` [Example 31, 2,5-dimethyl-N-(3-(4-methylpiperazine-1-carbonyl)phenyl)benzenesulfonamide], the AC50 was above 100 µM.

Source of the values: patent publication US20260138961A1, “MODULATORS OF MITOCHONDRIAL DNA REPLICATION” (Pretzel Therapeutics, Inc., priority 2022, published 2026).
